Laboratory results taken from patent US20260262643A1, “HERBICIDAL BENZOXAZINES” (FMC CORPORATION, priority 2022, published 2026).

Legend:
barnyardgrass [1] = test: Test C preemergence; type: in vivo, Echinochloa crusgalli; details: 0 to 100 scale (0 no effect, 100 complete control)
Procedure, shortened: (§1)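 Pre: seeds in loam/sand, directed soil spray. Post: 1–2 leaf plants, 2–10 cm. Cmpd in non-phytotoxic solvent + surfactant. Greenhouse 10 d; visual rating vs untreated, 0 = none, 100 = complete control.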

blackgrass [2] = test: Test C preemergence; type: in vivo, Alopecurus myosuroides; details: 0 to 100 scale (0 no effect, 100 complete control)
Procedure, shortened: as §1

corn [3] = test: Test C preemergence; type: in vivo, Zea mays; details: 0 to 100 scale (0 no effect, 100 complete control)
Procedure, shortened: as §1

green foxtail = test: Test C preemergence; type: in vivo, Setaria viridis; details: 0 to 100 scale (0 no effect, 100 complete control)
Procedure, shortened: as §1

kochia [4] = test: Test C preemergence; type: in vivo, Bassia scoparia; details: 0 to 100 scale (0 no effect, 100 complete control)
Procedure, shortened: as §1

oat, wild [5] = test: Test C preemergence; type: in vivo, Avena fatua; details: 0 to 100 scale (0 no effect, 100 complete control)
Procedure, shortened: as §1

pigweed, palmer [6] = test: Test C preemergence; type: in vivo, Amaranthus palmeri; details: 0 to 100 scale (0 no effect, 100 complete control)
Procedure, shortened: as §1

ragweed [7] = test: Test C preemergence; type: in vivo, Ambrosia artemisiifolia; details: 0 to 100 scale (0 no effect, 100 complete control)
Procedure, shortened: as §1

ryegrass, Italian [8] = test: Test C preemergence; type: in vivo, Lolium multiflorum; details: 0 to 100 scale (0 no effect, 100 complete control)
Procedure, shortened: as §1

soybean [9] = test: Test C preemergence; type: in vivo, Glycine max; details: 0 to 100 scale (0 no effect, 100 complete control)
Procedure, shortened: as §1

wheat [10] = test: Test C preemergence; type: in vivo, Triticum aestivum; details: 0 to 100 scale (0 no effect, 100 complete control)
Procedure, shortened: as §1

barnyardgrass [11] = test: Test C postemergence; type: in vivo, Echinochloa crusgalli; details: 10 days
Procedure, shortened: as §1

blackgrass [12] = test: Test C postemergence; type: in vivo, Alopecurus myosuroides; details: 10 days
Procedure, shortened: as §1

corn [13] = test: Test C postemergence; type: in vivo, Zea mays; details: 10 days
Procedure, shortened: as §1

kochia [14] = test: Test C postemergence; type: in vivo, Bassia scoparia; details: 10 days
Procedure, shortened: as §1

oat, wild [15] = test: Test C postemergence; type: in vivo, Avena fatua; details: 10 days
Procedure, shortened: as §1

pigweed, palmer [16] = test: Test C postemergence; type: in vivo, Amaranthus palmeri; details: 10 days
Procedure, shortened: as §1

ragweed [17] = test: Test C postemergence; type: in vivo, Ambrosia artemisiifolia; details: 10 days
Procedure, shortened: as §1

ryegrass, Italian [18] = test: Test C postemergence; type: in vivo, Lolium multiflorum; details: 10 days
Procedure, shortened: as §1

soybean [19] = test: Test C postemergence; type: in vivo, Glycine max; details: 10 days
Procedure, shortened: as §1

wheat [20] = test: Test C postemergence; type: in vivo, Triticum aestivum; details: 10 days
Procedure, shortened: as §1

galium = test: Test C postemergence; type: in vivo, Galium aparine; details: 10 days
Procedure, shortened: as §1

horseweed = test: Test C postemergence; type: in vivo, Erigeron canadensis; details: 10 days
Procedure, shortened: as §1

barnyardgrass [21] = test: Test D flooded paddy test; type: in vivo, Echinochloa crus-galli; details: 250 g ai/ha, applied to paddy water, visual rating after 13 to 14 days, scale 0 to 100 (0 no effect, 100 complete control)
Protocol: (§2) Plant species in the flooded paddy test selected from barnyardgrass (Echinochloa crus-galli), ducksalad (Heteranthera limosa), rice (Oryza sativa), and sedge, umbrella (small-flower umbrella sedge, Cyperus difformis) were grown to the 2-leaf stage for testing. At time of treatment, test pots were flooded to 3 cm above the soil surface, treated by application of test compounds directly to the paddy water, and then maintained at that water depth for the duration of the test. Treated plants and controls were maintained in a greenhouse for 13 to 14 days, after which time all species were compared to controls and visually evaluated. Plant response ratings, summarized in Table D, are based on a scale of 0 to 100 where 0 is no effect and 100 is complete control. A dash (-) response means no test result.

ducksalad = test: Test D flooded paddy test; type: in vivo, Heteranthera limosa; details: 250 g ai/ha, applied to paddy water, visual rating after 13 to 14 days, scale 0 to 100 (0 no effect, 100 complete control)
Protocol: as §2

rice = test: Test D flooded paddy test; type: in vivo, Oryza sativa; details: 250 g ai/ha, applied to paddy water, visual rating after 13 to 14 days, scale 0 to 100 (0 no effect, 100 complete control)
Protocol: as §2

sedge, umbrella = test: Test D flooded paddy test; type: in vivo, Cyperus difformis; details: 250 g ai/ha, applied to paddy water, visual rating after 13 to 14 days, scale 0 to 100 (0 no effect, 100 complete control)
Protocol: as §2

[22] = Preemergence, 500 g ai/ha, visual rating after 10 days
[23] = Test C, preemergence, 125 g ai/ha
[24] = 125 g ai/ha, postemergence, 0 to 100 scale, 0 no effect, 100 complete control
[25] = Postemergence, 500 g ai/ha, visual 0 to 100 scale (0 no effect, 100 complete control)

COC[C@H]1CN(C(=O)c2cc(-n3cncn3)ccc2OC)c2cccc(Cl)c2O1 [Compound 234]
Plant response rating, Barnyardgrass (barnyardgrass [1]; [22]): 100 | Barnyardgrass plant response rating (barnyardgrass [1]; [23]): 90 | Plant response rating, Blackgrass (blackgrass [2]; [22]): 80 | Blackgrass plant response rating (blackgrass [2]; [23]): 70 | Plant response rating, Corn (corn [3]; [22]): 10 | Corn plant response rating (corn [3]; [23]): 10 | Plant response rating, Foxtail, Green (green foxtail; [22]): 100 | Foxtail, Green plant response rating (green foxtail; [23]): 100 | Plant response rating, Kochia (kochia [4]; [22]): 60 | Kochia plant response rating (kochia [4]; [23]): 30 | Plant response rating, Oat, Wild (oat, wild [5]; [22]): 70 | Oat, Wild plant response rating (oat, wild [5]; [23]): 50 | Plant response rating, Pigweed, Palmer (pigweed, palmer [6]; [22]): 90 | Pigweed, Palmer plant response rating (pigweed, palmer [6]; [23]): 60 | Plant response rating, Ragweed (ragweed [7]; [22]): 50 | Ragweed plant response rating (ragweed [7]; [23]): 50 | Plant response rating, Ryegrass, Italian (ryegrass, Italian [8]; [22]): 90 | Ryegrass, Italian plant response rating (ryegrass, Italian [8]; [23]): 80 | Plant response rating, Soybean (soybean [9]; [22]): 100 | Soybean plant response rating (soybean [9]; [23]): 90 | Plant response rating, Wheat (wheat [10]; [22]): 80 | Wheat plant response rating (wheat [10]; [23]): 40 | Plant response rating, Barnyardgrass (barnyardgrass [11]; [24]): 60 | Plant response rating, Barnyardgrass (barnyardgrass [11]; [25]): 100 | Plant response rating, Blackgrass (blackgrass [12]; [24]): 80 | Plant response rating, Blackgrass (blackgrass [12]; [25]): 90 | Plant response rating, Corn (corn [13]; [24]): 70 | Plant response rating, Corn (corn [13]; [25]): 90 | Plant response rating, Kochia (kochia [14]; [24]): 60 | Plant response rating, Kochia (kochia [14]; [25]): 80 | Plant response rating, Oat, Wild (oat, wild [15]; [24]): 50 | Plant response rating, Oat, Wild (oat, wild [15]; [25]): 80 | Plant response rating, Pigweed, Palmer (pigweed, palmer [16]; [24]): 30 | Plant response rating, Pigweed, Palmer (pigweed, palmer [16]; [25]): 70 | Plant response rating, Ragweed (ragweed [17]; [24]): 50 | Plant response rating, Ragweed (ragweed [17]; [25]): 70 | Plant response rating, Ryegrass, Italian (ryegrass, Italian [18]; [24]): 90 | Plant response rating, Ryegrass, Italian (ryegrass, Italian [18]; [25]): 90 | Plant response rating, Soybean (soybean [19]; [24]): 100 | Plant response rating, Soybean (soybean [19]; [25]): 100 | Plant response rating, Wheat (wheat [20]; [24]): 50 | Plant response rating, Wheat (wheat [20]; [25]): 80 | Plant response rating, Galium (galium; [24]): 100 | Plant response rating, Galium (galium; [25]): 100 | Plant response rating, Horseweed (horseweed; [24]): 20 | Plant response rating, Horseweed (horseweed; [25]): 20 | Plant response rating, Barnyardgrass (Flood) (barnyardgrass [21]): 75 | Plant response rating, Ducksalad (Flood) (ducksalad): 100 | Plant response rating, Rice (Flood) (rice): 0 | Plant response rating, Sedge, Umbrella (Flood) (sedge, umbrella): 100
